Where “and” joins values, the source holds several entries; their conditions need not be identical. Equal values may be shown once. Inconclusive results and toxic doses are left out. How the source made its calls: active means survival T/C of 150% or more; inactive means T/C below 125% in these data.
Test system: CD2F1 mice, L1210 leukemia sc, survival T/C
Assay: NCI In Vivo Anticancer Drug Screen. Data for tumor model L1210 Leukemia (subcutaneous) in CD2F1 (CDF1) mice
Details: endpoint: median survival time, higher = longer survival
Summary of the method: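 Antitumor activity is scored in tumor-bearing mice by comparing survival or tumor size of treated animals against vehicle-treated controls, reported as T/C.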

[1] = dose: 65.0 mg/kg/injection, schedule: Q01DX Z (sc), vehicle: other

Measured: T/C

Nc1nc(=S)c2ncn(C3OC(CO)C(O)C3O)c2[nH]1 (stereo unspecified)
active: dose: 6.0 mg/kg/injection, schedule: Q01DX Z (sc), vehicle: other 177 % of control | dose: 10.1 mg/kg/injection, schedule: Q01DX Z (sc), vehicle: other 183 % of control | dose: 16.9 mg/kg/injection, schedule: Q01DX Z (sc), vehicle: other 155 % of control | dose: 28.1 mg/kg/injection, schedule: Q01DX Z (sc), vehicle: other 161 % of control | dose: 46.8 mg/kg/injection, schedule: Q01DX Z (sc), vehicle: other 155 % of control
inactive: [1] 123 % of control | dose: 108.0 mg/kg/injection, schedule: Q01DX Z (sc), vehicle: other 123 % of control | dose: 180.0 mg/kg/injection, schedule: Q01DX Z (sc), vehicle: other 114 % of control | dose: 300.0 mg/kg/injection, schedule: Q01DX Z (sc), vehicle: other 104 % of control

N#[N+]c1cnc([O-])[nH]c1=O
inactive: dose: 14.0 mg/kg/injection, schedule: Q01DX Z (sc), vehicle: methylcellulose (MC) 100 % of control | dose: 23.0 mg/kg/injection, schedule: Q01DX Z (sc), vehicle: methylcellulose (MC) 100 % of control | dose: 39.0 mg/kg/injection, schedule: Q01DX Z (sc), vehicle: methylcellulose (MC) 122 % of control | dose: 39.0 mg/kg/injection, schedule: Q01DX Z (sc), vehicle: other 100 % of control | [1] 116 % of control

O=C1c2ccccc2C(=O)c2c(NCCNCCO)ccc(O)c21
inactive: dose: 5.0 mg/kg/injection, schedule: Q01DX009 (ip), vehicle: suspension in saline 103 % of control and 104 % of control | dose: 10.0 mg/kg/injection, schedule: Q01DX009 (ip), vehicle: suspension in saline 103 % of control and 106 % of control | dose: 20.0 mg/kg/injection, schedule: Q01DX009 (ip), vehicle: suspension in saline 104 % of control and 108 % of control | dose: 40.0 mg/kg/injection, schedule: Q01DX009 (ip), vehicle: suspension in saline 103 % of control and 106 % of control | dose: 80.0 mg/kg/injection, schedule: Q01DX009 (ip), vehicle: suspension in saline 114 % of control and 116 % of control

CC[C@]1(O)C[C@H]2CN(CCc3c([nH]c4ccccc34)[C@@](C(=O)OC)(c3cc4c(cc3OC)N(C=O)[C@H]3[C@@](O)(C(=O)OC)[C@H](OC(C)=O)[C@]5(CC)C=CCN6CC[C@]43[C@@H]65)C2)C1
inactive: dose: 0.15 mg/kg/injection, schedule: Q01DX009 (ip), vehicle: saline 98 % of control | dose: 0.2 mg/kg/injection, schedule: Q01DX009 (ip), vehicle: saline 101 % of control | dose: 0.25 mg/kg/injection, schedule: Q01DX009 (ip), vehicle: saline 98 % of control | dose: 0.25 mg/kg/injection, schedule: Q01DX009 (sc), vehicle: saline 113 % of control | dose: 0.5 mg/kg/injection, schedule: Q01DX009 (sc), vehicle: saline 108 % of control | dose: 0.75 mg/kg/injection, schedule: Q01DX009 (sc), vehicle: saline 104 % of control and 92 % of control | dose: 1.0 mg/kg/injection, schedule: Q01DX009 (sc), vehicle: saline 102 % of control | dose: 1.25 mg/kg/injection, schedule: Q01DX001 (iv), vehicle: water 120 % of control | dose: 1.25 mg/kg/injection, schedule: Q01DX001 (sc), vehicle: water 120 % of control | dose: 1.25 mg/kg/injection, schedule: Q01DX009 (sc), vehicle: saline 111 % of control | dose: 1.5 mg/kg/injection, schedule: Q01DX009 (sc), vehicle: saline 107 % of control | dose: 2.5 mg/kg/injection, schedule: Q01DX001 (iv), vehicle: water 120 % of control | dose: 63.0 micrograms/kg/injection, schedule: Q01DX009 (ip), vehicle: saline 101 % of control | dose: 63.0 micrograms/kg/injection, schedule: Q01DX009 (sc), vehicle: saline 103 % of control | dose: 125.0 micrograms/kg/injection, schedule: Q01DX009 (ip), vehicle: saline 98 % of control | dose: 125.0 micrograms/kg/injection, schedule: Q01DX009 (sc), vehicle: saline 103 % of control | dose: 250.0 micrograms/kg/injection, schedule: Q01DX009 (ip), vehicle: saline 96 % of control | dose: 250.0 micrograms/kg/injection, schedule: Q01DX009 (sc), vehicle: saline 107 % of control | dose: 500.0 micrograms/kg/injection, schedule: Q01DX009 (ip), vehicle: saline 96 % of control | dose: 500.0 micrograms/kg/injection, schedule: Q01DX009 (sc), vehicle: saline 114 % of control

O=c1n[n+]([O-])ccn1C1OC(CO)C(O)C1O (stereo unspecified)
inactive: dose: 172.8 mg/kg/injection, schedule: Q01DX009 (ip), vehicle: saline 109 % of control | dose: 288.0 mg/kg/injection, schedule: Q01DX009 (ip), vehicle: saline 123 % of control
active: dose: 480.0 mg/kg/injection, schedule: Q01DX009 (ip), vehicle: saline 152 % of control

O=C(Nc1ccc(C2=NCCN2)cc1)c1ccc(C(=O)Nc2ccc(C3=NCCN3)cc2)c(Cl)c1
inactive: dose: 5.0 mg/kg/injection, schedule: Q01DX Z (iv), vehicle: water 100 % of control | dose: 8.4 mg/kg/injection, schedule: Q01DX Z (iv), vehicle: water 100 % of control | dose: 14.0 mg/kg/injection, schedule: Q01DX Z (iv), vehicle: water 100 % of control | dose: 39.0 mg/kg/injection, schedule: Q01DX Z (iv), vehicle: water 111 % of control
120 % of control and 227 % of control: dose: 8.4 mg/kg/injection, schedule: Q01DX Z (sc), vehicle: water
active: dose: 14.0 mg/kg/injection, schedule: Q01DX Z (sc), vehicle: water 188 % of control and 195 % of control and 233 % of control | dose: 23.0 mg/kg/injection, schedule: Q01DX Z (sc), vehicle: water 205 % of control and 220 % of control and 261 % of control | dose: 39.0 mg/kg/injection, schedule: Q01DX Z (sc), vehicle: water 211 % of control and 225 % of control and 183 % of control | dose: 65.0 mg/kg/injection, schedule: Q01DX Z (iv), vehicle: water 155 % of control | dose: 65.0 mg/kg/injection, schedule: Q01DX Z (sc), vehicle: water 188 % of control and 200 % of control and 166 % of control

OC(CBr)C(O)C(O)C(O)CBr (stereo unspecified)
inactive: dose: 40.0 mg/kg/injection, schedule: Q01DX009 (ip), vehicle: saline 103 % of control | dose: 40.0 mg/kg/injection, schedule: Q01DX009 (sc), vehicle: saline + alcohol 105 % of control | dose: 40.0 mg/kg/injection, schedule: Q01DX009 (sc), vehicle: saline with Tween-80 103 % of control | dose: 80.0 mg/kg/injection, schedule: Q01DX009 (ip), vehicle: saline 113 % of control | dose: 80.0 mg/kg/injection, schedule: Q01DX009 (sc), vehicle: saline + alcohol 116 % of control | dose: 100.0 mg/kg/injection, schedule: Q01DX009 (ip), vehicle: saline with Tween-80 100 % of control | dose: 100.0 mg/kg/injection, schedule: Q01DX009 (sc), vehicle: saline with Tween-80 103 % of control | dose: 108.0 mg/kg/injection, schedule: Q01DX Z (sc), vehicle: carboxymethylcellulose (CMC) 100 % of control | dose: 160.0 mg/kg/injection, schedule: Q01DX009 (sc), vehicle: saline + alcohol 121 % of control | dose: 160.0 mg/kg/injection, schedule: Q01DX009 (sc), vehicle: saline with Tween-80 103 % of control | dose: 200.0 mg/kg/injection, schedule: Q01DX009 (ip), vehicle: saline with Tween-80 103 % of control | dose: 200.0 mg/kg/injection, schedule: Q01DX009 (sc), vehicle: saline with Tween-80 102 % of control | dose: 240.0 mg/kg/injection, schedule: Q01DX009 (ip), vehicle: saline with Tween-80 124 % of control | dose: 300.0 mg/kg/injection, schedule: Q01DX Z (sc), vehicle: carboxymethylcellulose (CMC) 100 % of control | dose: 320.0 mg/kg/injection, schedule: Q01DX009 (sc), vehicle: saline with Tween-80 109 % of control | dose: 400.0 mg/kg/injection, schedule: Q01DX009 (ip), vehicle: saline with Tween-80 103 % of control | dose: 400.0 mg/kg/injection, schedule: Q01DX009 (sc), vehicle: saline with Tween-80 110 % of control | dose: 480.0 mg/kg/injection, schedule: Q01DX009 (ip), vehicle: saline with Tween-80 88 % of control | dose: 500.0 mg/kg/injection, schedule: Q01DX Z (sc), vehicle: carboxymethylcellulose (CMC) 100 % of control | dose: 640.0 mg/kg/injection, schedule: Q01DX009 (ip), vehicle: saline with Tween-80 93 % of control | dose: 640.0 mg/kg/injection, schedule: Q01DX009 (sc), vehicle: saline with Tween-80 104 % of control | dose: 800.0 mg/kg/injection, schedule: Q01DX009 (ip), vehicle: saline with Tween-80 98 % of control | dose: 800.0 mg/kg/injection, schedule: Q01DX009 (sc), vehicle: saline with Tween-80 111 % of control | dose: 960.0 mg/kg/injection, schedule: Q01DX009 (ip), vehicle: saline with Tween-80 96 % of control
